Article PMC2700083, “A covalent peptide inhibitor of RGS4 identified in a focused one-bead, one compound library screen” (BMC Pharmacology, 2009)
≈ marks a conversion by molar mass, not a printed value. Marks after values point to notes of the source that are not given here. *1 amine or outer side, *2 acyl side, *3 side chain or, on linkers, in order; H or OH if unused. Where a SMILES comes first, the peptide text is derived from it. Bridges are numbered along the chain shown (N, C = ends). CH2 = C([*:1])[*:2]

Key:
RGS8 [1] = molecular target: T1, RGS8 (Homo sapiens, UniProt P57771); set-up: method as in earlier work; conditions: David Roman, in preparation; cited from earlier work
T1 construct: RGS8 full length; made in house
T1 sequence (P57771 1-180): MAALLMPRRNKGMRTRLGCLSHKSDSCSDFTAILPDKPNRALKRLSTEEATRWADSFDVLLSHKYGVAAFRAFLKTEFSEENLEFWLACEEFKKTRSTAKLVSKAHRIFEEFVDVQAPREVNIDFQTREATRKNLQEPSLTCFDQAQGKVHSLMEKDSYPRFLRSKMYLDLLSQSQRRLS

RGS4 [2] = molecular target: T2, RGS4 (Rattus norvegicus, UniProt P49799); assay: FCPIA (flow cytometry protein interaction assay), RGS4-Gαo interaction, wild type RGS4 (MBP-RGS4Δ51N); format: binding
T2 construct: made in house
T2 sequence (P49799 52-205 limits assumed): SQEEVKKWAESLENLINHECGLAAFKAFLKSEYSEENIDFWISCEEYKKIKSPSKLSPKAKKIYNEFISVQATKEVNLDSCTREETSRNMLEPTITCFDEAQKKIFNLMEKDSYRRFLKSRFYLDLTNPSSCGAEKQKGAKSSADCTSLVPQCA
Procedure: (§1) We recently described a bead-based screen in which 2.5 × 10^6 different peptide sequences were prepared as a OBOC library. Fluorescently labeled RGS4 was used to probe the library for peptides that bind RGS4 [5]. […] Since the majority of those hit peptides could bind tightly to the RGS without disrupting GAP activity, they were also tested in the flow cytometry protein interaction assay (FCPIA) (Figure 1), which measures the interaction between RGS4 and Gαo. In this method we used a Luminex flow cytometer to detect the binding of Alexa Fluor 532-labeled Gαo to biotinylated RGS4 on avidin beads in the presence of AMF (AlCl3, MgCl2, NaF and GDP) to put the Gα subunit into a transition state-like conformation. Peptides were tested at 50 μM except where limited by solubility (Table 1).
Figure 1 Hit peptides in the FCPIA. Hit peptides from Roof, et al. 2008 were tested at 50 μM unless otherwise indicated for ability to disrupt the RGS4-Gαo interaction as described using 25 nM Gα o-Alexa Fluor-532 and 5 nM wild type RGS4-biotin (mean ± S.E.M., n ≥ 3) *p < 0.05, **p < 0.01, ***p < 0.001 compared to no peptide.
(§2) Proteins were expressed, purified and labeled as described previously. The mutagenesis was done using the "QuickChange Multi Site-Directed Mutagenesis Kit" from Stratagene according to the manufacturer's protocol. The construct of RGS4 used in these studies is a maltose binding protein (MBP-) fusion protein of the RGS4 sequence from which the amphipathic N-terminal helix has been removed (i.e. MBP-RGS4Δ51N). For simplicity in the text, this will be referred to as RGS4. All other RGS proteins were human sequences and were used as Mpb fusions: RGS7 RGS domain (aa: 305–453), RGS8 full length, RGS16 full length, and RGS19ΔC11 (amino acids 1–209). To cleave RGS4Δ51N from the MBP-His6 construct for MS analysis, MBP-His6-RGS4Δ51N was treated with 15% MBP-His6-TEV protease S219V [11] for 22 hours at 4°C and purified over a Ni-NTA column.
FCPIA was performed as previously published.

[3] = Solubility in buffer by HPLC; format: physicochemical; conditions: in buffer, determined by HPLC; for solubility: read-out: Buffer Solubility
Procedure: Soluble peptides were synthesized on Rink resin, cleaved and cyclized as described previously. Peptide purity (at least 95%) and solubility were verified by high-performance liquid chromatography and correct mass was verified by MS analysis. ALogP calculations are from. Peptides were prepared as 5 mM stocks in DMSO.

RGS8 [4] = molecular target: T1, RGS8; assay: FCPIA, Gαo binding to RGS8; conditions: no wash, read-out: percent inhibition, RGS8
Procedure: as §1
5nd inhibited Gαo binding to a number of different RGS proteins (Figure 2). […] RGS19 and RGS7 are in the RZ and R7 families, respectively and show less inhibition by 5nd. Linear as well as bridged versions of peptide 5 were tested in the FCPIA since cyclization yields would most likely have been less then 100% in the synthesis of the library leaving some linear peptides present on each bead. […] This may be due to lack of structural rigidity necessary for the correct interaction of the peptide with the RGS protein or a role for chemical reactivity of the disulfide.
Figure 2 Characterization of hit 5. A) and B) Dose response curves for 5nd in the FCPIA with different RGS proteins (RGS Family), (mean ± S.E.M., n = 3) *p < 0.05, **p < 0.01, ***p < 0.001 compared to RGS4 at the same 5nd concentration. C) Peptides were tested at 50 μM as in Figure 1, (mean ± S.E.M., n ≥ 3) *p < 0.05, **p < 0.01, ***p < 0.001 compared to no peptide.
Figure 3 Irreversibility experiments. RGS-biotin on avidin beads was treated with 5nd (100 μM) or 5nm (100 μM) and then washed in buffer (with or without 1 mM DTT) or not washed and put in the FCPIA using RGS4 (A) or RGS8 (B) (mean ± S.E.M., n ≥ 2) *p < 0.05, **p < 0.01, ***p < 0.001 compared to no peptide (100%); #p < 0.05, ##p < 0.01, ###p < 0.001 compared to 5nd no wash.
as §2, with “To cleave RGS4Δ51N from the MBP-His6 construct for MS analysis, MBP-His6-RGS4Δ51N was treated with 15% MBP-His6-TEV protease S219V [11] for 22 hours at 4°C and purified over a Ni-NTA column.” left out

RGS4 [5] = molecular target: T2, RGS4; assay: FCPIA (flow cytometry protein interaction assay), RGS4-Gαo interaction, wild type RGS4 (MBP-RGS4Δ51N); format: binding; conditions: peptide 100 μM
[6] = peptide 50 μM, 25 nM Gαo-Alexa Fluor-532, 5 nM RGS4-biotin

Row | SMILES | % Inhibition of RGS4-Gαo (RGS4 [2]; [6]) | solubility [3] [µM] | other results
1 | COS(=NS(=O)(=O)c1ccc(Cl)cc1)c1ccc([N+](=O)[O-])cc1 (stereo not drawn) [CCG-4986, methyl N-[(4-chlorophenyl)sulfonyl]-4-nitrobenzenesulfinimidoate] |  |  | activity against RGS8 (RGS8 [1]): no activity
2 | CC(=O)N[C@@H](Cc1ccc(O)cc1)C(=O)N[C@@H](CC(N)=O)C(=O)N[C@H]1CSSC[C@@H](C(=O)N[C@@H](CCCCN)C(N)=O)NC(=O)[C@H](CCC(=O)O)NC(=O)CNC(=O)[C@H](CCC(N)=O)NC1=O [Peptide 1ad, Ac-YNCQGECK-NH2] (Ac-YNCQGECK-NH2; disulfide 3-7) | 14 ± 6% | 123 (≈ 121 µg/mL) | 
3 | NCCCC[C@H](NC(=O)[C@@H]1CSSC[C@H](NC(=O)[C@H](CC(N)=O)NC(=O)[C@@H](N)Cc2ccc(O)cc2)C(=O)N[C@@H](CCC(N)=O)C(=O)NCC(=O)N[C@@H](CCC(=O)O)C(=O)N1)C(N)=O [Peptide 1nd, YNCQGECK-NH2] (H-YNCQGECK-NH2; disulfide 3-7) | 2 ± 4% | ≥ 420 | 
4 | CC(=O)NCC(=O)N[C@H](C(=O)N[C@H]1CSSC[C@@H](C(=O)N[C@@H](Cc2c[nH]c3ccccc23)C(N)=O)NC(=O)[C@H]([C@@H](C)O)NC(=O)CNC(=O)[C@H](Cc2ccccc2)NC1=O)[C@@H](C)O [Peptide 2ad, Ac-GTCFGTCW-NH2] (Ac-GTCFGTCW-NH2; disulfide 3-7) |  | 30 (≈ 27.4 µg/mL) | % Inhibition of RGS4-Gαo (RGS4 [2]; peptide 10 μM): 10 ± 4 (10 μM) %
5 | C[C@@H](O)[C@@H]1NC(=O)CNC(=O)[C@H](Cc2ccccc2)NC(=O)[C@@H](NC(=O)[C@@H](NC(=O)CN)[C@@H](C)O)CSSC[C@@H](C(=O)N[C@@H](Cc2c[nH]c3ccccc23)C(N)=O)NC1=O [Peptide 2nd, GTCFGTCW-NH2] (H-GTCFGTCW-NH2; disulfide 3-7) | 19 ± 3** % | 464 (≈ 404 µg/mL) | 
6 | CC(=O)N[C@@H](CC(C)C)C(=O)N[C@H](C(=O)N[C@H]1CSSC[C@@H](C(=O)N[C@@H](CCC(N)=O)C(N)=O)NC(=O)[C@H](Cc2ccc(O)cc2)NC(=O)CNC(=O)[C@H](CCCCN)NC1=O)C(C)C [Peptide 3ad, Ac-LVCKGYCQ-NH2] (Ac-LVCKGYCQ-NH2; disulfide 3-7) | 10 ± 3% | 427 (≈ 407 µg/mL) | 
7 | CC(C)C[C@H](N)C(=O)N[C@H](C(=O)N[C@H]1CSSC[C@@H](C(=O)N[C@@H](CCC(N)=O)C(N)=O)NC(=O)[C@H](Cc2ccc(O)cc2)NC(=O)CNC(=O)[C@H](CCCCN)NC1=O)C(C)C [Peptide 3nd, LVCKGYCQ-NH2] (H-LVCKGYCQ-NH2; disulfide 3-7) | 12 ± 2% | ≥ 470 | 
8 | CSCC[C@@H]1NC(=O)[C@@H](NC(=O)[C@@H](NC(=O)[C@H](CCCCN)NC(C)=O)C(C)C)CSSC[C@@H](C(=O)N[C@H](C(N)=O)[C@@H](C)O)NC(=O)CNC(=O)CNC1=O [Peptide 4ad, Ac-KVCMGGCT-NH2] (Ac-KVCMGGCT-NH2; disulfide 3-7) | 9 ± 6% | 459 (≈ 384 µg/mL) | 
9 | CSCC[C@@H]1NC(=O)[C@@H](NC(=O)[C@@H](NC(=O)[C@@H](N)CCCCN)C(C)C)CSSC[C@@H](C(=O)N[C@H](C(N)=O)[C@@H](C)O)NC(=O)CNC(=O)CNC1=O [Peptide 4nd, KVCMGGCT-NH2] (H-KVCMGGCT-NH2; disulfide 3-7) | 4 ± 3% | ≥ 470 | 
10 | CC(=O)N[C@@H](Cc1ccc(O)cc1)C(=O)N[C@@H](Cc1c[nH]c2ccccc12)C(=O)N[C@H]1CSSC[C@@H](C(=O)N[C@@H](CCCCN)C(N)=O)NC(=O)[C@H](CC(C)C)NC(=O)CNC(=O)[C@H](CCCCN)NC1=O [Peptide 5ad, Ac-YWCKGLCK-NH2] (Ac-YWCKGLCK-NH2; disulfide 3-7) | 37 ± 3*** % | 464 (≈ 482 µg/mL) | 
11 | CC(=O)N[C@@H](Cc1ccc(O)cc1)C(=O)N[C@@H](Cc1c[nH]c2ccccc12)C(=O)N[C@@H](CS)C(=O)N[C@@H](CCCCN)C(=O)NCC(=O)N[C@@H](CC(C)C)C(=O)N[C@@H](CS)C(=O)N[C@@H](CCCCN)C(N)=O [Peptide 5al, Ac-YWCKGLCK-NH2] (Ac-YWCKGLCK-NH2) |  | 460 (≈ 479 µg/mL) | 
12 | CC(C)C[C@H](NC(=O)CNC(=O)[C@H](CCCCN)NC(=O)[C@H](CS)NC(=O)[C@H](Cc1c[nH]c2ccccc12)NC(=O)[C@@H](N)Cc1ccc(O)cc1)C(=O)N[C@@H](CS)C(=O)N[C@@H](CCCCN)C(N)=O [Peptide 5nl, YWCKGLCK-NH2] (H-YWCKGLCK-NH2) |  | 465 (≈ 465 µg/mL) | 
13 | CC(C)C[C@@H]1NC(=O)CNC(=O)[C@H](CCCCN)NC(=O)[C@@H](NC(=O)[C@H](Cc2c[nH]c3ccccc23)NC(=O)[C@@H](N)Cc2ccc(O)cc2)CSCSC[C@@H](C(=O)N[C@@H](CCCCN)C(N)=O)NC1=O [Peptide 5nm, YWCKGLCK-NH2] (H-YWCKGLCK-NH2; linker 3-7 via CH2) |  | ≥ 470 | inhibition at 100 µM (RGS8 [4]): 18 ± 1%; % Inhibition of RGS4-Gαo (RGS4 [5]): 3 ± 0.1 (100 μM) %
14 | CC(=O)N[C@@H](CCCCN)C(=O)N[C@@H](Cc1c[nH]cn1)C(=O)N[C@H]1CSSC[C@@H](C(=O)N[C@@H](Cc2ccc(O)cc2)C(N)=O)NC(=O)[C@H](Cc2ccccc2)NC(=O)CNC(=O)[C@H](Cc2ccc(O)cc2)NC1=O [Peptide 6ad, Ac-KHCYGFCY-NH2] (Ac-KHCYGFCY-NH2; disulfide 3-7) | 27 ± 4*** % | 421 (≈ 446 µg/mL) | 
15 | NCCCC[C@H](N)C(=O)N[C@@H](Cc1c[nH]cn1)C(=O)N[C@H]1CSSC[C@@H](C(=O)N[C@@H](Cc2ccc(O)cc2)C(N)=O)NC(=O)[C@H](Cc2ccccc2)NC(=O)CNC(=O)[C@H](Cc2ccc(O)cc2)NC1=O [Peptide 6nd, KHCYGFCY-NH2] (H-KHCYGFCY-NH2; disulfide 3-7) |  |  | % Inhibition of RGS4-Gαo (RGS4 [2]; peptide 25 μM): 23 ± 15 (25 μM) * %; Buffer Solubility [3]: Low
16 | CC[C@H](C)[C@@H]1NC(=O)CNC(=O)[C@H]([C@@H](C)O)NC(=O)[C@@H](NC(=O)[C@H](CCCCN)NC(=O)[C@@H](NC(C)=O)C(C)C)CSSC[C@@H](C(=O)N[C@@H](CCC(=O)O)C(N)=O)NC1=O [YJ34, Ac-Val-Lys-c [Cys-Thr-Gly-Ile-Cys]-Glu-NH2, S-S, reference compound] (Ac-VKCTGICE-NH2; disulfide 3-7) |  | 80 (≈ 71.3 µg/mL) | % Inhibition of RGS4-Gαo (RGS4 [2]; peptide 40 μM): -17 ± 4 (40 μM) %
